Results: BindingDB's records for doi:10.1021/jm100978n (Pfizer, 2011)

Test: Antagonist activity at CCR5 receptor expressed in HeLa-P4 cells co-expressing CD4 assessed as inhibition of infusion to HIV gp120 expressed in CHO-tat10 cells after 20 hrs by cell-cell fusion assay

| SMILES | IC50 |
| --- | --- |
| CC(=O)N[C@@H](CCN1[C@@H]2CC[C@H]1C[C@@H](n1c(C)nc3c1CN(C(C)=O)CC3)C2)c1ccccc1 [endo-N-((S)-3-(3-(5-acetyl-2-methyl-4,5,6,7-tetrahydro-3H-imidazo[4,5-c]pyridin-3-yl)-8-azabicyclo[3.2.1]octan-8-yl)-1-phenylpropyl)acetamide] | 400 pM |
| CC(=O)N[C@@H](CCN1[C@@H]2CC[C@H]1C[C@@H](n1c(C)nc3c1CN(C(C)C)CC3)C2)c1ccccc1 [endo-N-((S)-3-(3-(5-isopropyl-2-methyl-4,5,6,7-tetrahydro-3H-imidazo[4,5-c]pyridin-3-yl)-8-azabicyclo[3.2.1]octan-8-yl)-1-phenylpropyl)acetamide] | 3000 pM |
| Cc1nc(C(C)C)n([C@H]2C[C@H]3CC[C@@H](C2)N3CC[C@H](NC(=O)C2CCC(F)(F)CC2)c2ccccc2)n1 [endo-4,4-difluoro-N-((S)-3-(3-(5-isopropyl-3-methyl-1H-1,2,4-triazol-1-yl)-8-azabicyclo[3.2.1]octan-8-yl)-1-phenylpropyl)cyclohexanecarboxamide] | 1400 pM |
| CC(=O)N[C@@H](CCN1[C@@H]2CC[C@H]1C[C@@H](n1c(C)nc3c1CN(C)CC3)C2)c1ccccc1 [endo-N-((S)-3-(3-(2,5-dimethyl-4,5,6,7-tetrahydro-3H-imidazo[4,5-c]pyridin-3-yl)-8-azabicyclo[3.2.1]octan-8-yl)-1-phenylpropyl)acetamide] | 5000 pM |
| CC(=O)N[C@@H](CCN1[C@@H]2CC[C@H]1C[C@@H](n1c(C)nc3c1CNCC3)C2)c1ccccc1 [endo-N-((S)-3-(3-(2-methyl-4,5,6,7-tetrahydro-3H-imidazo[4,5-c]pyridin-3-yl)-8-azabicyclo[3.2.1]octan-8-yl)-1-phenylpropyl)acetamide] | 9000 pM |
| COC(=O)N1CCc2nc(C)n([C@H]3C[C@H]4CC[C@@H](C3)N4CC[C@H](NC(C)=O)c3ccccc3)c2C1 [endo-methyl 3-(8-((S)-3-acetamido-3-phenylpropyl)-8-azabicyclo[3.2.1]octan-3-yl)-2-methyl-6,7-dihydro-3H-imidazo[4,5-c]pyridine-5(4H)-carboxylate] | 300 pM |
| COC(=O)N[C@@H](CCN1[C@@H]2CC[C@H]1C[C@@H](n1c(C)nc3c1CN(C(C)=O)CC3)C2)c1cccc(F)c1 [endo-methyl(S)-3-(3-(5-acetyl-2-methyl-4,5,6,7-tetrahydro-3H-imidazo[4,5-c]pyridin-3-yl)-8-azabicyclo[3.2.1]octan-8-yl)-1-(3-fluorophenyl)propylcarbamate] | 200 pM |
| COC(=O)N[C@@H](CCN1[C@@H]2CC[C@H]1C[C@@H](n1c(C)nc3c1CN(C(=O)OC)CC3)C2)c1cccc(F)c1 [endo-methyl 3-(8-((S)-3-(3-fluorophenyl)-3-(methoxycarbonylamino)propyl)-8-azabicyclo[3.2.1]octan-3-yl)-2-methyl-6,7-dihydro-3H-imidazo[4,5-c]pyridine-5(4H)-carboxylate] | 200 pM |
| CC(=O)N[C@@H](CCN1[C@@H]2CC[C@H]1C[C@@H](n1c(C)nc3c1CN(C(=O)C(C)C)CC3)C2)c1ccccc1 [endo-N-((S)-3-(3-(5-isobutyryl-2-methyl-4,5,6,7-tetrahydro-3H-imidazo[4,5-c]pyridin-3-yl)-8-azabicyclo[3.2.1]octan-8-yl)-1-phenylpropyl)acetamide] | 400 pM |
| COC(=O)N[C@@H](CCN1[C@@H]2CC[C@H]1C[C@@H](n1c(C)nc3c1CN(C(C)=O)CC3)C2)c1ccccc1 [endo-methyl(S)-3-(3-(5-acetyl-2-methyl-4,5,6,7-tetrahydro-3H-imidazo[4,5-c]pyridin-3-yl)-8-azabicyclo[3.2.1]octan-8-yl)-1-phenylpropylcarbamate] | 600 pM |
| COC(=O)N1CCc2nc(C)n([C@H]3C[C@H]4CC[C@@H](C3)N4CC[C@H](NC(C)=O)c3cccc(F)c3)c2C1 [endo-methyl 3-(8-((S)-3-acetamido-3-(3-fluorophenyl)propyl)-8-azabicyclo[3.2.1]octan-3-yl)-2-methyl-6,7-dihydro-3H-imidazo[4,5-c]pyridine-5(4H)-carboxylate] | 100 pM |
| CC(=O)N[C@@H](CCN1[C@@H]2CC[C@H]1C[C@@H](n1c(C)nc3c1CN(Cc1ccccc1)CC3)C2)c1ccccc1 [endo-N-((S)-3-(3-(5-benzyl-2-methyl-4,5,6,7-tetrahydro-3H-imidazo[4,5-c]pyridin-3-yl)-8-azabicyclo[3.2.1]octan-8-yl)-1-phenylpropyl)acetamide] | 29000 pM |
| CC(=O)N[C@@H](CCN1[C@@H]2CC[C@H]1C[C@@H](n1c(C)nc3c1CN(S(C)(=O)=O)CC3)C2)c1ccccc1 [endo-N-((S)-3-(3-(2-methyl-5-(methylsulfonyl)-4,5,6,7-tetrahydro-3H-imidazo[4,5-c]pyridin-3-yl)-8-azabicyclo[3.2.1]octan-8-yl)-1-phenylpropyl)acetamide] | 2000 pM |
| CC(=O)N[C@@H](CCN1[C@@H]2CC[C@H]1C[C@@H](n1c(C)nc3ccccc31)C2)c1ccccc1 [endo-N-((S)-3-(3-(2-methyl-1H-benzo[d]imidazol-1-yl)-8-azabicyclo[3.2.1]octan-8-yl)-1-phenylpropyl)acetamide] | 500 pM |
| CCC(=O)N1CCc2nc(C)n([C@H]3C[C@H]4CC[C@@H](C3)N4CC[C@H](NC(C)=O)c3ccccc3)c2C1 [endo-N-((S)-3-(3-(2-methyl-5-propionyl-4,5,6,7-tetrahydro-3H-imidazo[4,5-c]pyridin-3-yl)-8-azabicyclo[3.2.1]octan-8-yl)-1-phenylpropyl)acetamide] | 400 pM |
